Measurements reported in patent publication US9931379B2, “Oxyntomodulin analogs and methods of making and using same” (The Research Foundation for The State University of New York, priority 2015, dated 2018).
Starred links: 1 amine or outer side, 2 acyl side, 3 side chain; linkers in the order of their positions; H or OH if unused. Positions of bridges follow the written chain, without caps; N, C: chain ends. Non-standard residues stand in square brackets, D forms with d. Residues, ends and D or L forms follow the SMILES beside them. Biphenyl(4,4'-CH2)2 = c1cc(-c2ccc(C[*:2])cc2)ccc1C[*:1]; X3 = C(=Cc1ccc(C=CC[*:2])cc1)C[*:1]

What was measured:
[1] = biological target: T1, GLP-1R (Homo sapiens, UniProt P43220); assay: CRE-driven luciferase reporter assay, HEK293 cells overexpressing GLP-1R; type: cell-based
T1 construct: expressed in transfected cells
T1 sequence (P43220 24-463): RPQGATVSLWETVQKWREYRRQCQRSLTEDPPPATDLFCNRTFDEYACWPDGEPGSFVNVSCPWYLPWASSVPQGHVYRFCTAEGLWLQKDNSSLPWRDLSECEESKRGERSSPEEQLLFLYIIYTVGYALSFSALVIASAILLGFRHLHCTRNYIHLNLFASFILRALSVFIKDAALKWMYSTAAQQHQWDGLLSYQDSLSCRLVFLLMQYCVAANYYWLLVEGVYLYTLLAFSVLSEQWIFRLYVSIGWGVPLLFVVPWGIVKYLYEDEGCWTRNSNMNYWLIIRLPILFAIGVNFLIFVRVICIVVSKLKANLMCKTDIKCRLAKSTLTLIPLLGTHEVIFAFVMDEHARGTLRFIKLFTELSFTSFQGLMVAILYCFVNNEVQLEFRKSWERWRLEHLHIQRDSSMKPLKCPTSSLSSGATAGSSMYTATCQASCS
Experimental: (§1) The surviving cells (referred to as CRE-HEK293) were expanded and then transfected with a G418 selective mammalian expression plasmid encoding human GCGR or GLP-1R, followed by geneticin selection (Life technologies, Carlsbad, Calif.). Single-colony stable cell lines expressing both CRE-luciferase and GCGR/GLP-1R were then established for in vitro activity assays.
(§2) HEK293-GCGR-CRE and HEK293-GLP-1R-CRE cells were seeded in a white 384-well plate at a density of 5,000 cells per well and cultured for 24 hours in DMEM with 10% FBS at 37° C. with 5% CO2. Cells were treated with different peptides in a dose dependent manner. After 24 hours, 10 μL of Bright-Glo reagent (Promega, Madison, Wis.) was added to each well and luminescence was determined using an Envision multilabel plate reader (PerkinElmer, Waltham, Mass.). The EC50 of each peptide was calculated using GraphPad Prism 6 software (GraphPad, San Diego, Calif.).

[2] = biological target: T2, GCGR (Homo sapiens, UniProt P47871); assay: CRE-driven luciferase reporter assay, HEK293 cells overexpressing GCGR; type: cell-based; conditions: for GCGR activation, result in words: comparison
T2 construct: expressed in transfected cells
T2 sequence (P47871 26-477): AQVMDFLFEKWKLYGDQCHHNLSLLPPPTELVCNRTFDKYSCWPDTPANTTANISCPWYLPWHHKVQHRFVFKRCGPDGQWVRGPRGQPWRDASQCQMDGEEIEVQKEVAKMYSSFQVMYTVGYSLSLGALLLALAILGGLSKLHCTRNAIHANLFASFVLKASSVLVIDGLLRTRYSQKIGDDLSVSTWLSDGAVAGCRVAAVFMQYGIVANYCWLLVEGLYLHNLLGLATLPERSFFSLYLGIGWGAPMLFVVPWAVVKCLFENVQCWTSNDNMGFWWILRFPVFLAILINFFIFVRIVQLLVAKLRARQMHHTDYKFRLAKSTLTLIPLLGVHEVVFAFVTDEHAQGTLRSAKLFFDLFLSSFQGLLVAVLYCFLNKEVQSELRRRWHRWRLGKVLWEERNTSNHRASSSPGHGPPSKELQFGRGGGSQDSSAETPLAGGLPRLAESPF
Experimental: as §1, §2

[3] = compared to its linear counterpart
[4] = compared to its D,L counterpart, peptide 1

**Q.** Which results are given for `CC[C@H](C)[C@H](NC(=O)[C@H](CC(N)=O)NC(=O)[C@H](CC(N)=O)NC(=O)[C@H](CCCNC(=N)N)NC(=O)[C@H](CC(N)=O)NC(=O)[C@H](CCCNC(=N)N)NC(=O)[C@H](CCCCN)NC(=O)[C@@H](NC(=O)[C@H](CC(N)=O)NC(=O)[C@H](CCSC)NC(=O)[C@H](CC(C)C)NC(=O)[C@H](Cc1c[nH]c2ccccc12)NC(=O)[C@@H]1CSCC=Cc2ccc(cc2)C=CCSC[C@H](NC(=O)[C@H](CCC(=O)O)NC(=O)[C@H](CC(=O)O)NC(=O)[C@H](CC(C)C)NC(=O)[C@H](Cc2ccc(O)cc2)NC(=O)[C@H](CCCCN)NC(=O)[C@H](CO)NC(=O)[C@H](Cc2ccc(O)cc2)NC(=O)[C@H](CC(=O)O)NC(=O)[C@H](CO)NC(=O)[C@@H](NC(=O)[C@H](Cc2ccccc2)NC(=O)[C@@H](NC(=O)CNC(=O)[C@H](CCC(N)=O)NC(=O)[C@@H](CO)NC(=O)[C@@H](N)Cc2c[nH]cn2)[C@@H](C)O)[C@@H](C)O)C(=O)N[C@@H](C)C(=O)N[C@@H](C)C(=O)N[C@@H](CCCCN)C(=O)N[C@@H](CCC(=O)O)C(=O)N[C@@H](Cc2ccccc2)C(=O)N[C@@H]([C@@H](C)CC)C(=O)N1)[C@@H](C)O)C(=O)N[C@@H](C)C(N)=O` [compound 12] (H-H[dS]QGTFTSDYSKYLDECAAKEFICWLMNTKRNRNNIA-NH2; linker 17-24 via X3)?
**A.** EC50 ([1]; Table 2, mean and standard deviation, assay performed three times, read-out: Agonist activity (nM) GLP-1R): 0.45 ± 0.03 nM; EC50 ([2]; Table 2, mean and standard deviation, assay performed three times, read-out: Agonist activity (nM) GCGR): 1 ± 0.12 nM

**Q.** `CC[C@H](C)[C@H](NC(=O)[C@H](CC(N)=O)NC(=O)[C@H](CC(N)=O)NC(=O)[C@H](CCCNC(=N)N)NC(=O)[C@H](CC(N)=O)NC(=O)[C@H](CCCNC(=N)N)NC(=O)[C@H](CCCCN)NC(=O)[C@@H](NC(=O)[C@H](CC(N)=O)NC(=O)[C@H](CCSC)NC(=O)[C@H](CC(C)C)NC(=O)[C@H](Cc1c[nH]c2ccccc12)NC(=O)[C@H](CS)NC(=O)[C@@H](NC(=O)[C@H](Cc1ccccc1)NC(=O)[C@H](CC(=O)O)NC(=O)[C@H](CCC(N)=O)NC(=O)[C@H](C)NC(=O)[C@H](CCCNC(=N)N)NC(=O)[C@@H](CS)NC(=O)[C@H](CO)NC(=O)[C@H](CC(=O)O)NC(=O)[C@H](CC(C)C)NC(=O)[C@H](Cc1ccc(O)cc1)NC(=O)[C@H](CCCCN)NC(=O)[C@H](CO)NC(=O)[C@H](Cc1ccc(O)cc1)NC(=O)[C@H](CC(=O)O)NC(=O)[C@H](CO)NC(=O)[C@@H](NC(=O)[C@H](Cc1ccccc1)NC(=O)[C@@H](NC(=O)CNC(=O)[C@H](CCC(N)=O)NC(=O)[C@@H](CO)NC(=O)[C@@H](N)Cc1c[nH]cn1)[C@@H](C)O)[C@@H](C)O)C(C)C)[C@@H](C)O)C(=O)N[C@@H](C)C(N)=O` [peptide 1] (H-H[dS]QGTFTSDYSKYLDS[dC]RAQDFVCWLMNTKRNRNNIA-NH2) was tested. Which “GLP-1R activation, result in words” value ([1]; comparison) did it give?
**A.** reduced potency

**Q.** And the “GCGR activation, result in words” value [2]?
**A.** more potently than peptide 2

**Q.** Which results are given for `CC[C@H](C)[C@H](NC(=O)[C@H](CC(N)=O)NC(=O)[C@H](CC(N)=O)NC(=O)[C@H](CCCNC(=N)N)NC(=O)[C@H](CC(N)=O)NC(=O)[C@H](CCCNC(=N)N)NC(=O)[C@H](CCCCN)NC(=O)[C@@H](NC(=O)[C@H](CC(N)=O)NC(=O)[C@H](CCSC)NC(=O)[C@H](CC(C)C)NC(=O)[C@H](Cc1c[nH]c2ccccc12)NC(=O)[C@@H]1CSCc2ccc(cc2)-c2ccc(cc2)CSC[C@@H](NC(=O)[C@H](CO)NC(=O)[C@H](CC(=O)O)NC(=O)[C@H](CC(C)C)NC(=O)[C@H](Cc2ccc(O)cc2)NC(=O)[C@H](CCCCN)NC(=O)[C@H](CO)NC(=O)[C@H](Cc2ccc(O)cc2)NC(=O)[C@H](CC(=O)O)NC(=O)[C@H](CO)NC(=O)[C@@H](NC(=O)[C@H](Cc2ccccc2)NC(=O)[C@@H](NC(=O)CNC(=O)[C@H](CCC(N)=O)NC(=O)[C@@H](CO)NC(=O)[C@@H](N)Cc2c[nH]cn2)[C@@H](C)O)[C@@H](C)O)C(=O)N[C@@H](CCCNC(=N)N)C(=O)N[C@@H](C)C(=O)N[C@@H](CCC(N)=O)C(=O)N[C@@H](CC(=O)O)C(=O)N[C@@H](Cc2ccccc2)C(=O)N[C@@H](C(C)C)C(=O)N1)[C@@H](C)O)C(=O)N[C@@H](C)C(N)=O` [peptide 3] (H-H[dS]QGTFTSDYSKYLDS[dC]RAQDFVCWLMNTKRNRNNIA-NH2; linker 17-24 via Biphenyl(4,4'-CH2)2)?
**A.** increase in activity toward GLP-1R on crosslinking [1, 3]: 2 fold; increase in activity toward GCGR on crosslinking [2, 3]: 16 fold

**Q.** `CC[C@H](C)[C@H](NC(=O)[C@H](CC(N)=O)NC(=O)[C@H](CC(N)=O)NC(=O)[C@H](CCCNC(=N)N)NC(=O)[C@H](CC(N)=O)NC(=O)[C@H](CCCNC(=N)N)NC(=O)[C@H](CCCCN)NC(=O)[C@@H](NC(=O)[C@H](CC(N)=O)NC(=O)[C@H](CCSC)NC(=O)[C@H](CC(C)C)NC(=O)[C@H](Cc1c[nH]c2ccccc12)NC(=O)[C@H](CS)NC(=O)[C@@H](NC(=O)[C@H](Cc1ccccc1)NC(=O)[C@H](CC(=O)O)NC(=O)[C@H](CCC(N)=O)NC(=O)[C@H](C)NC(=O)[C@H](CCCNC(=N)N)NC(=O)[C@H](CS)NC(=O)[C@H](CO)NC(=O)[C@H](CC(=O)O)NC(=O)[C@H](CC(C)C)NC(=O)[C@H](Cc1ccc(O)cc1)NC(=O)[C@H](CCCCN)NC(=O)[C@H](CO)NC(=O)[C@H](Cc1ccc(O)cc1)NC(=O)[C@H](CC(=O)O)NC(=O)[C@H](CO)NC(=O)[C@@H](NC(=O)[C@H](Cc1ccccc1)NC(=O)[C@@H](NC(=O)CNC(=O)[C@H](CCC(N)=O)NC(=O)[C@@H](CO)NC(=O)[C@@H](N)Cc1c[nH]cn1)[C@@H](C)O)[C@@H](C)O)C(C)C)[C@@H](C)O)C(=O)N[C@@H](C)C(N)=O` [peptide 4] (H-H[dS]QGTFTSDYSKYLDSCRAQDFVCWLMNTKRNRNNIA-NH2) was tested. Which “increase in GLP-1R activity” value [1, 4] did it give?
**A.** roughly 2 fold

**Q.** What about the “increase in GCGR activity” value [2, 4] of the same molecule?
**A.** roughly 2 fold

**Q.** `CC[C@H](C)[C@H](NC(=O)[C@H](CC(N)=O)NC(=O)[C@H](CC(N)=O)NC(=O)[C@H](CCCNC(=N)N)NC(=O)[C@H](CC(N)=O)NC(=O)[C@H](CCCNC(=N)N)NC(=O)[C@H](CCCCN)NC(=O)[C@@H](NC(=O)[C@H](CC(N)=O)NC(=O)[C@H](CCSC)NC(=O)[C@H](CC(C)C)NC(=O)[C@H](Cc1c[nH]c2ccccc12)NC(=O)[C@H](CS)NC(=O)[C@@H](NC(=O)[C@H](Cc1ccccc1)NC(=O)[C@H](CC(C)C)NC(=O)[C@H](CCCNC(=N)N)NC(=O)[C@@H](NC(=O)[C@H](C)NC(=O)[C@H](CS)NC(=O)[C@H](CCC(=O)O)NC(=O)[C@H](CC(=O)O)NC(=O)[C@H](CC(C)C)NC(=O)[C@H](Cc1ccc(O)cc1)NC(=O)[C@H](CCCCN)NC(=O)[C@H](CO)NC(=O)[C@H](Cc1ccc(O)cc1)NC(=O)[C@H](CC(=O)O)NC(=O)[C@H](CO)NC(=O)[C@@H](NC(=O)[C@H](Cc1ccccc1)NC(=O)[C@@H](NC(=O)CNC(=O)[C@H](CCC(N)=O)NC(=O)[C@@H](CO)NC(=O)[C@@H](N)Cc1c[nH]cn1)[C@@H](C)O)[C@@H](C)O)C(C)C)[C@@H](C)CC)[C@@H](C)O)C(=O)N[C@@H](C)C(N)=O` [peptide 8] (H-H[dS]QGTFTSDYSKYLDECAVRLFICWLMNTKRNRNNIA-NH2) was tested. Which “GCGR activation, result in words” value [2] did it give?
**A.** less potent
